As usually defined, the EC50 is the concentration at which the effect is half-maximal. Usually IC50 stands for the concentration at which inhibition is half-maximal. High values mean a need for much substance, low ones inhibition by little substance.

The text below walks through data of ChEMBL document CHEMBL4706677, “Design, synthesis, and biological evaluation of 1,3,6,7-tetrahydroxyxanthone derivatives as phosphoglycerate mutase 1 inhibitors” (Bioorg Med Chem Lett, 2021).

Bounds are passed on as bounds.

The test system of one experiment is NCI-H1299. Nature of the experiment: Antiproliferative activity against human NCI-H1299 cells assessed as inhibition of cell proliferation. The class given is functional, cell-based.
For experiment [1], the target named is Phosphoglycerate mutase 1 (Homo sapiens, UniProt P18669). In words: Inhibition of PGAM1 (unknown origin).
Chain of Phosphoglycerate mutase 1 (P18669 whole entry): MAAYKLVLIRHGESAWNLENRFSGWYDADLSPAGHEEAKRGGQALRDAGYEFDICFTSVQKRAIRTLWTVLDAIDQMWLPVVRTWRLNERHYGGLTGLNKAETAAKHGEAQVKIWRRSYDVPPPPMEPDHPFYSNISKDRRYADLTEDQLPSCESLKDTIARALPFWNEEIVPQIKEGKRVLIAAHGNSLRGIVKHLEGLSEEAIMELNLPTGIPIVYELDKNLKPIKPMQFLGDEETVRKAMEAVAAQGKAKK

`CC(C)=CCc1c(O)cc2oc3cc(O)c(O)c(CC=C(C)C)c3c(=O)c2c1O`: in the experiment with NCI-H1299, the concentration for a half-maximal effect (EC50) came out at 2.2 µM. The compound also showed a 50% inhibitory concentration (IC50) in experiment [1] of 1.9 µM.

Regarding `O=C1c2ccccc2C(=O)c2c1cc(S(=O)(=O)Nc1ccc(C(F)(F)F)cc1)c(O)c2O`, in the experiment with NCI-H1299, the EC50 was 26.2 µM.

Consider `O=c1c2cc(O)c(O)cc2oc2cc(O)cc(OCCCCN3CCCCC3)c12`, for which the IC50 in experiment [1] was over 20 µM.

On to `CCCCC=CCc1c(O)c(O)cc2oc3cc(O)cc(O)c3c(=O)c12`, for which, in the experiment on NCI-H1299, the 50% effective concentration (EC50) was found to be 13.5 µM. The same compound had an IC50 in experiment [1] of 2.8 µM.

As to `COc1c(OCCN2CCN(C)CC2)cc2oc3cc(OCCN4CCN(C)CC4)c(CC=C(C)C)c(O)c3c(=O)c2c1CC=C(C)C`, the half-inhibitory concentration (IC50) in experiment [1] was over 20 µM.

In experiment [1], `CCNC(=O)Oc1cc2oc3cc(OC(=O)NCC)c(OC)c(CC=C(C)C)c3c(=O)c2c(O)c1CC=C(C)C` showed an IC50 of over 20 µM.

Regarding `COc1c(OC(=O)NC(C)C)cc2oc3cc(OC(=O)NC(C)C)c(CC=C(C)C)c(O)c3c(=O)c2c1CC=C(C)C`, the half-inhibitory concentration (IC50) in experiment [1] is over 20 µM.

The compound `COc1c(OCCN(C)C)cc2oc3cc(OCCN(C)C)c(CC=C(C)C)c(O)c3c(=O)c2c1CC=C(C)C` gave a half-inhibitory concentration (IC50) in experiment [1] of over 20 µM.

In experiment [1], `O=C(CCCOc1cc(O)cc2oc3cc(O)c(O)cc3c(=O)c12)N1CCCCC1` registered a half-maximal inhibitory concentration (IC50) of over 20 µM.

Turning to `CCCCCCCCOc1cc(O)cc2oc3cc(O)c(O)cc3c(=O)c12`, in the experiment with NCI-H1299, the concentration for a half-maximal effect (EC50) amounted to 3.4 µM. This compound also gave a half-maximal inhibitory concentration (IC50) in experiment [1] of 2.8 µM.

Consider `O=c1c2c(O)cc(O)cc2oc2cc(O)c(O)c(CCCc3ccccc3)c12`, for which the half-maximal effective concentration (EC50) in the experiment on NCI-H1299 came out at 41.6 µM. The 50% inhibitory concentration (IC50) in experiment [1] is 1.5 µM.

For `COc1c(OCCO)cc2oc3cc(OCCO)c(CC=C(C)C)c(O)c3c(=O)c2c1CC=C(C)C`, the IC50 in experiment [1] is over 20 µM.

In the case of `COc1cc(O)c2c(=O)c3c(CCCc4ccccc4)c(O)c(OC)cc3oc2c1`, in experiment [1], the half-inhibitory concentration (IC50) is over 20 µM.

As for `CCCCOc1cc(O)cc2oc3cc(O)c(O)cc3c(=O)c12`, the EC50 with NCI-H1299 was 60 µM. The same compound showed an IC50 in experiment [1] of 12.8 µM.

In turn, `CCCc1c(O)c(O)cc2oc3cc(O)cc(O)c3c(=O)c12` showed an IC50 in experiment [1] of 20 µM.

`O=c1c2cc(O)c(O)cc2oc2cc(O)cc(OCCCCN3CCc4ccccc43)c12`: the EC50 in the experiment with NCI-H1299 came to 28.1 µM. In experiment [1], this compound registered a concentration for half-maximal inhibition (IC50) of 5.7 µM.

For the compound `COc1c(OCC(=O)N(C)C)cc2oc3cc(OCC(=O)N(C)C)c(CC=C(C)C)c(O)c3c(=O)c2c1CC=C(C)C`, the IC50 in experiment [1] was over 20 µM.

On to `CC(C)=CCc1c(O)c(O)cc2oc3cc(O)cc(O)c3c(=O)c12`, for which the concentration for a half-maximal effect (EC50) in the experiment on NCI-H1299 came out at 47.7 µM. Besides, it took 3.4 µM to reach half-maximal inhibition in experiment [1] (IC50).

In experiment [1], `COc1c(O)cc2oc3cc(O)c(CC=C(C)C)c(O)c3c(=O)c2c1CC=C(C)C` [MANGOSTIN] came in with an IC50 of 7.2 µM. That is a single-digit micromolar value.

Take `O=c1c2ccccc2oc2ccccc12` [XANTHONE]: 0.5 µM corresponded to half-maximal inhibition in experiment [1] (IC50).
